Patent US11999993B2, “Use of biomarkers in identifying cancer patients that will be responsive to treatment with a PRMT5 inhibitor” (Janssen Pharmaceutica NV, priority 2017, dated 2024)

Assays:
[1] = tested on: NCI-H1048; assay: Cellular sensitivity, lung cancer cell line panel (SCLC); format: cell-based; conditions: Homo sapiens, NCI-H1048, PIK3CA H1047R
[2] = tested on: LU99a; assay: as above; format: cell-based; conditions: Homo sapiens, LU-99A, PIK3CA T1025A
[3] = tested on: H69V; assay: as above; format: cell-based; conditions: PIK3CA G106_R108del
[4] = tested on: NCI-H441; assay: Proliferation sensitivity, NSCLC U2AF1-S34F cell panel; format: cell-based; conditions: Homo sapiens, Adenocarcinoma
[5] = tested on: LC-2/ad; assay: as above; format: cell-based; conditions: Homo sapiens, Adenocarcinoma
[6] = tested on: HCC78; assay: as above; format: cell-based; conditions: Homo sapiens, Adenocarcinoma
[7] = tested on: EPLC272H; assay: Lung cell line panel sensitivity, Cyclin D1 pathway amplified NSCLC; format: cell-based; conditions: Homo sapiens, EPLC-272H, Adenocarcinoma
[8] = tested on: NCI-H226; assay: as above; format: cell-based; conditions: Homo sapiens; NCI-H226, CDK4 amplified, Adenocarcinoma
[9] = tested on: HLC1; assay: as above; format: cell-based; conditions: HLC1, CDK6 amplified, Squamous Cell Carcinoma
[10] = biological target: PRMT5 (Homo sapiens, UniProt O14744); conditions: Chan-Penebre et al., Nat Chem Biol 2015; cited from earlier work
[11] = tested on: MCL xenograft models; conditions: multiple MCL xenograft models; Chan-Penebre et al. 2015; cited from earlier work

Sequence of PRMT5 (O14744 whole entry): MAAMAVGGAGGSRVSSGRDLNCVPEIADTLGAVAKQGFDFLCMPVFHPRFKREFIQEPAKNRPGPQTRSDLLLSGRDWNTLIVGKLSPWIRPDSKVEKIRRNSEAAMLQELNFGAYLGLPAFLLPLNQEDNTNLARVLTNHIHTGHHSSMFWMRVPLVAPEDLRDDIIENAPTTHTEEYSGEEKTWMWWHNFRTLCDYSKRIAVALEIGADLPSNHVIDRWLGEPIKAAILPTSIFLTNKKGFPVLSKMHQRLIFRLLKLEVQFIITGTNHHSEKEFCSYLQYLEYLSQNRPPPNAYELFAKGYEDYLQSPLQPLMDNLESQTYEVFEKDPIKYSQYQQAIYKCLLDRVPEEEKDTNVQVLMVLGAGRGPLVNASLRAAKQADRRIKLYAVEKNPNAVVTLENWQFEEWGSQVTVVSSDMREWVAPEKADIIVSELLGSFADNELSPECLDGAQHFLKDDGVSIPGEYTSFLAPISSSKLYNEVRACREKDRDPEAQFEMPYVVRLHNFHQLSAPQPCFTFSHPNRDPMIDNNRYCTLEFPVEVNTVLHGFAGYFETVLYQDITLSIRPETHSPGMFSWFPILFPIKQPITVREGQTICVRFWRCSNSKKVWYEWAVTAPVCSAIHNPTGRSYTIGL
Sequence of PRMT5 (Q9BQA1 whole entry partner): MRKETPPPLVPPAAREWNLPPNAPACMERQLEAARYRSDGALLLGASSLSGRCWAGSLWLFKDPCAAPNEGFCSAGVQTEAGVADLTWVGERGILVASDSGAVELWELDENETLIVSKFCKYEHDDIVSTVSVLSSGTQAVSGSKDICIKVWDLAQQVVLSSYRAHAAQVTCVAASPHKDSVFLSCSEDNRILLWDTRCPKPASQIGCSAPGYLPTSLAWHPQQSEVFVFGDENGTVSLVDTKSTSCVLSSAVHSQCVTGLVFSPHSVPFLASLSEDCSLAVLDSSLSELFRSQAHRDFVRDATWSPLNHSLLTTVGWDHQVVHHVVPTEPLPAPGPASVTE

Row | Compound | GI50 [1] | GI50 [2] | GI50 [3] | GI50 [4] | GI50 [5] | GI50 [6] | GI50 [7] | GI50 [8] | GI50 [9] | PRMT5 inhibitor potency [10] | anti-tumor activity [11]
1 | Nc1ncnc2c1ccn2[C@@H]1O[C@H](COc2ccc3cc(Br)cnc3c2)[C@@H](O)[C@H]1O [Compound 2] | 94.6 nM | 129 nM | 85.6 nM | 98.4 nM | 116 nM | 108 nM | 98.5 nM | 205 nM | 96.4 nM |  | 
2 | O=C(NC[C@H](O)CN1CCc2ccccc2C1)c1cc(NC2COC2)ncn1 [EPZ015666] |  |  |  |  |  |  |  |  |  | sub-nanomolar | anti-tumor activity in multiple MCL xenograft models
